Publication PMC12328261, “Modulating Antimicrobial Activity and Structure of the Peptide Esc(1‐21) via Site‐Specific Isopeptide Bond Formation” (Journal of Peptide Science, 2025)
*1 amine or outer side, *2 acyl side, *3 side chain or, on linkers, in order; H or OH if unused. Where a SMILES comes first, the peptide text is derived from it. Bridges are numbered along the chain shown (N, C = ends). Roman numbers before positions name the chains, in order. Where no end group is shown, it is not given here. Side-chain parts run from the residue outwards. [ ]: non-standard residue; d: D form. εLys = N[C@@H](CCCCN[*:1])C(=O)[*:2]

How the values were obtained:
[1] = system: S. epidermidis ATCC 12228; assay type: cell-based, Staphylococcus epidermidis
Procedure: (§1) The antimicrobial activity of Esc(1‐21) analogs was assessed by determining the minimal inhibitory concentration (MIC) against a panel of representative Gram‐negative and Gram‐positive bacteria. […] The bacteria were then diluted in Mueller‐Hinton (MH) broth at a concentration of 2 × 10^6 colony‐forming units (CFU)/mL. Aliquots (50 μL) were added to 50 μL of MH containing serial two‐fold dilutions of the peptides, which had been previously prepared in the wells of a 96‐well plate, achieving a final cell concentration of 10^6 CFU/mL. […] To evaluate the antibiofilm activity of the tested peptides, bacteria were diluted to a cell density of 10^6 CFU/mL and aliquots of 100 μL were dispensed into the wells of a 96‐multiwell plate and incubated for 20 h at 37°C to allow biofilm formation. Planktonic cells were then removed, and each well was washed twice with 150 μL of phosphate buffered saline (PBS). Each well was filled with PBS supplemented with different 2‐fold serial dilutions of the tested peptides and the plate was incubated for 2 h at 37°C. After two washes with PBS, biofilm viability was assessed by adding 150 μL of MTT (0.5 mg/mL). The plate was incubated for 4 h at 37°C and the reaction was then stopped by adding SDS (final concentration equal to 5% v/v). The absorbance of each well was measured at 570 nm with a microplate reader (Infinite M200; Tecan, Salzburg, Austria), and the percentage of biofilm viability was calculated with respect to the untreated samples.

S. aureus ATCC 25923 = assay type: cell-based, Staphylococcus aureus
Procedure: as §1

P. aeruginosa ATCC 15692 = assay type: cell-based, Pseudomonas aeruginosa
Procedure: as §1

P. aeruginosa ATCC 27853 = assay type: cell-based, Pseudomonas aeruginosa
Procedure: as §1

E. coli ATCC 25922 = assay type: cell-based, Escherichia coli
Procedure: as §1

RBCs = system: RBCs; set-up: method as in PMID 32722535; details: 64 µM; cited from earlier work

| Molecule | Antimicrobial activity (MIC) [1] | Antimicrobial activity (MIC) (S. aureus ATCC 25923) | Antimicrobial activity (MIC) (P. aeruginosa ATCC 15692) | Antimicrobial activity (MIC) (P. aeruginosa ATCC 27853) | Antimicrobial activity (MIC) (E. coli ATCC 25922) | Hemolysis (RBCs) |
| --- | --- | --- | --- | --- | --- | --- |
| CC[C@H](C)[C@H](NC(=O)CN)C(=O)N[C@@H](Cc1ccccc1)C(=O)N[C@@H](CO)C(=O)N[C@@H](CCCCN)C(=O)N[C@@H](CC(C)C)C(=O)N[C@@H](C)C(=O)NCC(=O)N[C@@H](CCCCN)C(=O)N[C@@H](CCCCN)C(=O)N[C@H](C(=O)N[C@@H](CCCCN)C(=O)N[C@@H](CC(N)=O)C(=O)N[C@@H](CC(C)C)C(=O)N[C@@H](CC(C)C)C(=O)N[C@H](C(=O)N[C@@H](CO)C(=O)NCC(=O)N[C@@H](CC(C)C)C(=O)NCCCC[C@H](N)C(=O)NCC(N)=O)[C@@H](C)CC)[C@@H](C)CC [Esc(1‐21)ε20] (H-GIFSKLAGKKIKNLLISGL[εLys]G-NH2) | 3.12 µM | > 50 µM | 1.56 µM | 1.56 µM | 1.56 µM | – |
| CC[C@H](C)[C@H](NC(=O)CN)C(=O)N[C@@H](Cc1ccccc1)C(=O)N[C@@H](CO)C(=O)N[C@@H](CCCCN)C(=O)N[C@@H](CC(C)C)C(=O)N[C@@H](C)C(=O)NCC(=O)N[C@@H](CCCCN)C(=O)NCCCC[C@H](N)C(=O)N[C@H](C(=O)N[C@@H](CCCCN)C(=O)N[C@@H](CC(N)=O)C(=O)N[C@@H](CC(C)C)C(=O)N[C@@H](CC(C)C)C(=O)N[C@H](C(=O)N[C@@H](CO)C(=O)NCC(=O)N[C@@H](CC(C)C)C(=O)N[C@@H](CCCCN)C(=O)NCC(N)=O)[C@@H](C)CC)[C@@H](C)CC [Esc(1‐21)ε10] (I: H-KIKNLLISGLKG-NH2 / II: H-GIFSKLAGK; amide I:1-II:C) | 25 µM | > 50 µM | 6.25 µM | 12.5 µM | 6.25 µM | – |
| CC[C@H](C)[C@H](NC(=O)CN)C(=O)N[C@@H](Cc1ccccc1)C(=O)N[C@@H](CO)C(=O)NCCCC[C@H](N)C(=O)N[C@@H](CC(C)C)C(=O)N[C@@H](C)C(=O)NCC(=O)N[C@@H](CCCCN)C(=O)N[C@@H](CCCCN)C(=O)N[C@H](C(=O)N[C@@H](CCCCN)C(=O)N[C@@H](CC(N)=O)C(=O)N[C@@H](CC(C)C)C(=O)N[C@@H](CC(C)C)C(=O)N[C@H](C(=O)N[C@@H](CO)C(=O)NCC(=O)N[C@@H](CC(C)C)C(=O)N[C@@H](CCCCN)C(=O)NCC(N)=O)[C@@H](C)CC)[C@@H](C)CC [Esc(1‐21)ε5] (H-K([Ser-Phe-Ile-Gly])LAGKKIKNLLISGLKG-NH2) | 25 µM | > 50 µM | 6.25 µM | 12.5 µM | 3.12 µM | – |
| CC[C@H](C)[C@H](NC(=O)CN)C(=O)N[C@@H](Cc1ccccc1)C(=O)N[C@@H](CO)C(=O)N[C@@H](CCCCN)C(=O)N[C@@H](CC(C)C)C(=O)N[C@@H](C)C(=O)NCC(=O)N[C@@H](CCCCN)C(=O)N[C@@H](CCCCN)C(=O)N[C@H](C(=O)NCCCC[C@H](N)C(=O)N[C@@H](CC(N)=O)C(=O)N[C@@H](CC(C)C)C(=O)N[C@@H](CC(C)C)C(=O)N[C@H](C(=O)N[C@@H](CO)C(=O)NCC(=O)N[C@@H](CC(C)C)C(=O)N[C@@H](CCCCN)C(=O)NCC(N)=O)[C@@H](C)CC)[C@@H](C)CC [Esc(1‐21)ε12] (H-GIFSKLAGKKI[εLys]NLLISGLKG-NH2) | > 50 µM | > 50 µM | 25 µM | 25 µM | 25 µM | – |
| CC[C@H](C)[C@H](NC(=O)CN)C(=O)N[C@@H](Cc1ccccc1)C(=O)N[C@@H](CO)C(=O)N[C@@H](CCCCN)C(=O)N[C@@H](CC(C)C)C(=O)N[C@@H](C)C(=O)NCC(=O)NCCCC[C@H](N)C(=O)N[C@@H](CCCCN)C(=O)N[C@H](C(=O)N[C@@H](CCCCN)C(=O)N[C@@H](CC(N)=O)C(=O)N[C@@H](CC(C)C)C(=O)N[C@@H](CC(C)C)C(=O)N[C@H](C(=O)N[C@@H](CO)C(=O)NCC(=O)N[C@@H](CC(C)C)C(=O)N[C@@H](CCCCN)C(=O)NCC(N)=O)[C@@H](C)CC)[C@@H](C)CC [Esc(1‐21)ε9] (I: H-KKIKNLLISGLKG-NH2 / II: H-GIFSKLAG; amide I:1-II:C) | 12.5 µM | > 50 µM | 6.25 µM | 6.25 µM | 3.12 µM | – |
| GIFSKLAGKKIKNLLISGLKG-NH2 [Esc(1‐21), Esculentin‐1a(1‐21)NH2] | – | – | – | – | – | 10-15% |
